Laboratory results reported in patent publication US20260285850A1, “SUBSTITUTED OXAZOLIDINONES AND IMIDAZOLINONES AS HERBICIDES” (FMC CORPORATION, priority 2023, published 2026).

Assays:
Assay type in all cases: in vivo
[1] = test system: galium (catchweed bedstraw, Galium aparine); assay: Test A postemergence application, visual injury rating 0-100
Procedure, shortened: (§1)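 Preemergence directed soil spray or postemergence spray (2-10 cm, 1-2 leaf); loam/sand mix; compound in non-phytotoxic solvent + surfactant. Greenhouse, 10 d. Visual injury vs untreated, 0 = none, 100 = complete control.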

[2] = test system: green foxtail (Setaria viridis); assay: as above
Procedure, shortened: as §1

[3] = test system: oat, wild (wild oat, Avena fatua); assay: as above
Procedure, shortened: as §1

[4] = test system: horseweed (Erigeron canadensis); assay: as above
Procedure, shortened: as §1

[5] = test system: wheat (Triticum aestivum); assay: as above
Procedure, shortened: as §1

corn (Zea mays) [6] = assay: as above
Procedure, shortened: as §1

[7] = test system: ragweed (common ragweed, Ambrosia artemisiifolia); assay: as above
Procedure, shortened: as §1

soybean (Glycine max) [8] = assay: as above
Procedure, shortened: as §1

[9] = test system: palmer (palmer amaranth, palmer pigweed, Amaranthus palmeri); assay: as above
Procedure, shortened: as §1

[10] = test system: ryegrass, Italian (italian ryegrass, Lolium multiflorum); assay: as above
Procedure, shortened: as §1

kochia (Bassia scoparia) [11] = assay: as above
Procedure, shortened: as §1

[12] = test system: barnyardgrass (Echinochloa crus-galli); assay: as above
Procedure, shortened: as §1

[13] = test system: blackgrass (Alopecurus myosuroides); assay: as above
Procedure, shortened: as §1

[14] = test system: green foxtail (Setaria viridis); assay: Test A preemergence soil spray, visual injury rating 0-100; conditions: 10 days
Procedure, shortened: as §1

[15] = test system: oat, wild (wild oat, Avena fatua); assay: as above; conditions: 10 days
Procedure, shortened: as §1

[16] = test system: wheat (Triticum aestivum); assay: as above; conditions: 10 days
Procedure, shortened: as §1

corn (Zea mays) [17] = assay: as above; conditions: 10 days
Procedure, shortened: as §1

[18] = test system: ragweed (common ragweed, Ambrosia artemisiifolia); assay: as above; conditions: 10 days
Procedure, shortened: as §1

soybean (Glycine max) [19] = assay: as above; conditions: 10 days
Procedure, shortened: as §1

[20] = test system: palmer (palmer amaranth, palmer pigweed, Amaranthus palmeri); assay: as above; conditions: 10 days
Procedure, shortened: as §1

[21] = test system: ryegrass, Italian (italian ryegrass, Lolium multiflorum); assay: as above; conditions: 10 days
Procedure, shortened: as §1

kochia (Bassia scoparia) [22] = assay: as above; conditions: 62 g ai/ha, 10 days, 0 = no effect, 100 = complete control
Procedure, shortened: as §1

[23] = test system: barnyardgrass (Echinochloa crus-galli); assay: as above; conditions: 10 days
Procedure, shortened: as §1

[24] = test system: blackgrass (Alopecurus myosuroides); assay: as above; conditions: 10 days
Procedure, shortened: as §1

[25] = test system: barnyardgrass (Echinochloa crusgalli); assay: Test B flooded paddy test, visual plant response rating 0-100; conditions: 250 g ai/ha, Flood, applied to paddy water, evaluated after 13 days
Procedure, shortened: (§2)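 Paddy-water application: test compounds went directly into water flooded 3 cm above the soil surface, with plants at 2 leaves. After a 13-day greenhouse period, responses were judged by eye relative to controls; a dash marks an untested entry.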

[26] = test system: ducksalad (Heteranthera limosa); assay: as above; conditions: 250 g ai/ha, Flood, applied to paddy water, evaluated after 13 days
Procedure, shortened: as §2

[27] = test system: sedge, umbrella (small-flower umbrella sedge, Cyperus difformis); assay: as above; conditions: 250 g ai/ha, Flood, applied to paddy water, evaluated after 13 days
Procedure, shortened: as §2

rice (Oryza sativa) = assay: as above; conditions: 250 g ai/ha, Flood, applied to paddy water, evaluated after 13 days
Procedure, shortened: as §2

[28] = 62 g ai/ha, postemergence, 10 days, 0 = no effect, 100 = complete control
[29] = Postemergence, 16 g ai/ha, greenhouse 10 days, 0 no effect, 100 complete control
[30] = 62 g ai/ha, 0 = no effect, 100 = complete control

CCOC(=O)C1C=CC(NC(=O)C2(C)CN(c3cc(C)cc(C)c3)C(=O)O2)C1 (stereo not drawn) [Compound 116]
Galium plant response rating (0-100) [1, 28]: 70
Galium plant response rating (0 to 100 scale) [1, 29]: 60
Foxtail, Green plant response rating (0-100) [2, 28]: 30
Foxtail, Green plant response rating (0 to 100 scale) [2, 29]: 10
Oat, Wild plant response rating (0-100) [3, 28]: 90
Oat, Wild plant response rating (0 to 100 scale) [3, 29]: 60
Horseweed plant response rating (0-100) [4, 28]: 0
Horseweed plant response rating (0 to 100 scale) [4, 29]: 0
Wheat plant response rating (0-100) [5, 28]: 90
Wheat plant response rating (0 to 100 scale) [5, 29]: 40
Corn plant response rating (0-100) (corn (Zea mays) [6]; [28]): 100
Corn plant response rating (0 to 100 scale) (corn (Zea mays) [6]; [29]): 40
Ragweed plant response rating (0-100) [7, 28]: 30
Ragweed plant response rating (0 to 100 scale) [7, 29]: 0
Soybean plant response rating (0-100) (soybean (Glycine max) [8]; [28]): 60
Soybean plant response rating (0 to 100 scale) (soybean (Glycine max) [8]; [29]): 50
Pigweed, Palmer plant response rating (0-100) [9, 28]: 40
Pigweed, Palmer plant response rating (0 to 100 scale) [9, 29]: 0
Ryegrass, Italian plant response rating (0-100) [10, 28]: 70
Ryegrass, Italian plant response rating (0 to 100 scale) [10, 29]: 20
Kochia plant response rating (0-100) (kochia (Bassia scoparia) [11]; [28]): 60
Kochia plant response rating (0 to 100 scale) (kochia (Bassia scoparia) [11]; [29]): 20
Barnyardgrass plant response rating (0-100) [12, 28]: 100
Barnyardgrass plant response rating (0 to 100 scale) [12, 29]: 70
Blackgrass plant response rating (0-100) [13, 28]: 90
Blackgrass plant response rating (0 to 100 scale) [13, 29]: 80
Foxtail, Green plant response rating ([14]; 16 g ai/ha, 0 to 100 scale): 0
Foxtail, Green plant response rating (0-100) [14, 30]: 80
Oat, Wild plant response rating ([15]; 16 g ai/ha, 0 to 100 scale): 0
Oat, Wild plant response rating (0-100) [15, 30]: 50
Wheat plant response rating ([16]; 16 g ai/ha, 0 to 100 scale): 0
Wheat plant response rating (0-100) [16, 30]: 30
Corn plant response rating (corn (Zea mays) [17]; 16 g ai/ha, 0 to 100 scale): 0
Corn plant response rating (0-100) (corn (Zea mays) [17]; [30]): 10
Ragweed plant response rating ([18]; 16 g ai/ha, 0 to 100 scale): 0
Ragweed plant response rating (0-100) [18, 30]: 0
Soybean plant response rating (soybean (Glycine max) [19]; 16 g ai/ha, 0 to 100 scale): 0
Soybean plant response rating (0-100) (soybean (Glycine max) [19]; [30]): 0
Pigweed, Palmer plant response rating ([20]; 16 g ai/ha, 0 to 100 scale): 10
Pigweed, Palmer plant response rating (0-100) [20, 30]: 100
Ryegrass, Italian plant response rating ([21]; 16 g ai/ha, 0 to 100 scale): 0
Ryegrass, Italian plant response rating (0-100) [21, 30]: 70
Kochia plant response rating (0-100) (kochia (Bassia scoparia) [22]): 100
Barnyardgrass plant response rating ([23]; 16 g ai/ha, 0 to 100 scale): 30
Barnyardgrass plant response rating (0-100) [23, 30]: 100
Blackgrass plant response rating ([24]; 16 g ai/ha, 0 to 100 scale): 0
Blackgrass plant response rating (0-100) [24, 30]: 70
Plant response rating, Barnyardgrass (0 to 100 scale, 0 is no effect and 100 is complete control) [25]: 75
Plant response rating, Ducksalad (0 to 100 scale, 0 is no effect and 100 is complete control) [26]: 45
Plant response rating, Sedge, Umbrella (0 to 100 scale, 0 is no effect and 100 is complete control) [27]: 55
Plant response rating, Rice (0 to 100 scale, 0 is no effect and 100 is complete control) (rice (Oryza sativa)): 50
